Measurements as given in patent US9107879B1, “Methods of increasing the cytotoxicity of chemotherapeutic agents with multisubstrate inhibitors of histone, protein-lys, polyamine acetylation, and polyamine metabolism” (Vanderbilt University, priority 2010, dated 2015).
Each block holds one compound with its values, some of them ahead of it.

Assays:
H358 lung cancer cells = assay: 96-well MTS cell viability assay; format: cell-based
Description: Control cells were left untreated. […] Control cells were left untreated.
Cells were given fresh inhibitor on the first, second, and third days of treatment and viability was measured on the 4th day (i.e. 3 days post start of treatment).
(A) Structure of compound 2a. […] Averages of duplicate samples with standard deviations are shown.
(A) Structure of Spd-3a. (B) Western analysis of histone H3K9-acetylation and total histone H3, measured in control, untreated H358 lung cancer cells “C’ or in H358 cells incubated 12 hours in the presence of 50 μM Spd-2a or Spd-3a. Each lane represents 60 μg cellular protein. (C) [3H]-thymidine incorporation (counts per minute) into DNA of H358 cells during a 6 hour pulse beginning at 42 hours post-start of treatment. Treatments were as follows (bars 1-6 left to right): (1) control: no treatment; (2) CPT alone: 5 nM 18 hours; (3) 3a alone: 50 μM; (4-6) 3a+CPT: CPT (5 nm, 18 hours)+3a at indicated dose. After 18 hours, CPT was removed and medium was replaced with fresh medium containing Spd-3a at the indicated dose. Each bar represents the average of triplicates. (D) 3-day 96-well viability assay of H358 cells grown in the presence of increasing amounts of Spd-2a or Spd-3a, with or without CPT (5 nM 18 hours). […] Each data point represents the average of three wells.
Cells were plated in 96-well plates at 2000 cells per well and treated with the indicated doses of spd-3a. Cell viability was measured by the MTS assay 3 days later.
DLD-1 cells or H358 cells were plated in 96-well plates at 2000 cells per well and treated with the indicated doses of (A) spm-3 or (B) spm-2. (C) Cell viability was measured by the MTS assay 3 days later. Similar experiment using GT41 fibroblasts with spm2 or spm 3. Each assay point represents an average of duplicates.
Control cells received neither 1a nor camptothecin.
After overnight attachment, triplicate wells were treated with increasing concentrations of inhibitor 1a or 1b. Control wells were left untreated. One day later, and again 2 days later, the medium in the wells was removed and replaced with fresh medium containing 1a or 1b.

p300 catalytic domain = target: T1, p300 catalytic domain (Homo sapiens, UniProt Q09472); assay: fluorescent HAT assay kit (Active Motif), 96-well; format: biochemical
T1 construct: the catalytic domain of p300(965-1810); purchased Active Motif, Carlsbad, Calif
T1 sequence (Q09472 965-1810): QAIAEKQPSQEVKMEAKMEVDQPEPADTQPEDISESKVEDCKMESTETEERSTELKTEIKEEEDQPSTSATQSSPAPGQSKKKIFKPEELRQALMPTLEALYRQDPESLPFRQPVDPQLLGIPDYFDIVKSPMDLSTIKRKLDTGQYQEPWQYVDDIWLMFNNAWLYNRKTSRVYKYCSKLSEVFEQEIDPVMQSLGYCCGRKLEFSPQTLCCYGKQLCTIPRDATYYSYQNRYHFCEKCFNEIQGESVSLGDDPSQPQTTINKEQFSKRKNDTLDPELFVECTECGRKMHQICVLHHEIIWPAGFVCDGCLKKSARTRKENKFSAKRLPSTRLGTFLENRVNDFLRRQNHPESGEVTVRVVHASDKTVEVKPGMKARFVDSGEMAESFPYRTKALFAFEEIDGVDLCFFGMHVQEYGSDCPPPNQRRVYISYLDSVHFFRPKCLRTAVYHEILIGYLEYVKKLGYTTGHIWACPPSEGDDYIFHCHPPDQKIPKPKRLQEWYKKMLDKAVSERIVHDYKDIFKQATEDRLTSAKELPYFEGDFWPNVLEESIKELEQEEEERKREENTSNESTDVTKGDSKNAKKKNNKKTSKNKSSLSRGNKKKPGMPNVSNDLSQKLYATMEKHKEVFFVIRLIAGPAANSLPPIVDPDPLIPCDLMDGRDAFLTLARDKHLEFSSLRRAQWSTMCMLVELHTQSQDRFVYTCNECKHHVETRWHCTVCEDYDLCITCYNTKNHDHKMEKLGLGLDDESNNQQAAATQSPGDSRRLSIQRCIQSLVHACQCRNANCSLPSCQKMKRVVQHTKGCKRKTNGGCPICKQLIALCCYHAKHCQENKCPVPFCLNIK
Description: (A) Structures of compound 1a (spermidine CoA), and the acetylated side chain of a lysine residue of a polypeptide chain. (B) Inhibition of p300 acetylating activity as a function of 1a concentration. The catalytic domain of recombinant p300 (1284-1660) was assayed under steady state conditions using an N-terminal acetylated histone H4 peptide substrate, Ac-H4(1-19)-NH2. Closed circles represent experimental data points; plain line represents theoretical profile based on data reduction software (Prism) using a one site inhibition model. (C) In vitro assay of p300 activity using a 96-well assay kit (ActivMotif) and an H3 peptide substrate (5-23), according to manufacturer's instructions. Bars represent average of duplicates. […]
Reactions were set up in duplicate following the protocol supplied by the kit. […] Activity is measured in fluorescence units. […]
Assays were performed using the fluorescent HAT assay kit (Active Motif, Carlsbad, Calif.), an H3 peptide as substrate (residues 5-23), the p300 catalytic domain as enzyme, and 50 μM inhibitor in duplicate, according to the manufacturer's instructions. […] The reaction product, CoASH, was detected spectrophotometrically by reaction with 5,5′-dithiobis-2-nitrobenzoic acid (DTNB). Assays were carried out at 30° C. for 30 minutes, conditions which had previously been determined in kinetic assays to sufficient to achieve steady state.

GT41F skin fibroblasts = assay: 96-well MTS viability assay; format: cell-based, human; conditions: 3 days; for sensitivity of normal fibroblasts compared with cancer cell lines: single agent
[1] = system: DU 145 prostate cancer cells; assay: gamma-H2A.X immunofluorescence; format: cell-based; conditions: 8 hours, 5 nM camptothecin alone
From the text: The immuno fluorescence images on the left and right sides of the middle scheme illustrate this visually. […] Cells were fixed and stained with a rabbit antibody to the histone variant, γ-H2A.X, a marker for DNA double stranded breaks, followed by staining with a fluorescein (FITC)-tagged goat anti rabbit secondary antibody. Nuclei were stained with Hoescht 33345.

suppression of p300HAT-mediated incorporation of acetyl groups relative to control enzyme (p300 catalytic domain; 50 μM inhibitor, H3 peptide substrate, FIG. 1C): 88%
Compound: CC(C)(COP(=O)(O)OP(=O)(O)OC[C@H]1O[C@@H](n2cnc3c(N)ncnc32)[C@H](O)[C@@H]1OP(=O)(O)O)[C@@H](O)C(=O)NCCC(=O)NCCSCC(=O)NCCCNCCCCN [1a, spermidine[N1]-CoA]
2-day cell viability, % of untreated cell viability (H358 lung cancer cells; 5 nM camptothecin + increasing concentrations of 1a): less than 10%

Compound: CC(=O)NCCSCC(=O)NCCCNCCCCN [3a]
sensitivity of normal fibroblasts compared with cancer cell lines (GT41F skin fibroblasts): less sensitive
cell viability retained (GT41F skin fibroblasts; spd-3a 1 μM): ~60%
suppression of 3-day cell viability in combination with camptothecin (H358 lung cancer cells; 3a + CPT 5 nM 18 hours): effective

Compound: CC[C@@]1(O)C(=O)OCc2c1cc1n(c2=O)Cc2cc3ccccc3nc2-1 [camptothecin]
2-day cumulative cell viability relative to untreated, single agent (H358 lung cancer cells; 1a increasing concentrations, camptothecin 5 nM 18 hour): no effect
DNA damage by γ-H2A.X staining, single agent [1]: minimal damage

p300 HAT inhibition in vitro (p300 catalytic domain; kit assay, 2a at 50 μM): HAT inhibitors
Compound: CC(=O)NCCSCC(=O)NCCCNCCCCNCCCN [spm-3]
sensitivity of normal fibroblasts compared with cancer cell lines (GT41F skin fibroblasts): sensitivity similar to that of H358 lung cancer cells
3-day cell viability, single agent (H358 lung cancer cells; single agent): effective as single agents
